From patent US20210317092A1 (BAYER PHARMA AKTIENGESELLSCHAFT, priority 2016, published 2021)

Target: T1, human Bradykinin B1 receptor (Homo sapiens, UniProt P46663)
T1 construct: host or cells: CHO-K1
T1 sequence (P46663 1-353): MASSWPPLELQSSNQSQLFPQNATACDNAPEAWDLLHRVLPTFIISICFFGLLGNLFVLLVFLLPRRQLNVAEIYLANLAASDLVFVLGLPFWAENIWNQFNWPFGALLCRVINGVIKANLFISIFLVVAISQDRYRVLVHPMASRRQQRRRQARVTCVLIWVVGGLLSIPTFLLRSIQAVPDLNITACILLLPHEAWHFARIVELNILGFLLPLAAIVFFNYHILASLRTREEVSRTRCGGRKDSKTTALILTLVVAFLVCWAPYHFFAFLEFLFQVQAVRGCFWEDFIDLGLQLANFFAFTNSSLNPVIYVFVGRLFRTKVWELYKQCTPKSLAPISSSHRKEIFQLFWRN
Assay: Calcium flux Assay (FLIPR) with recombinant CHO-K1 cells expressing human Bradykinin B1 receptor, in presence (hB1 IC50) or absence (hB1 free IC50) of 0.1% BSA
Format: cell-based
Details: in absence of 0.1% BSA, read-out: hB1 free IC50

IC50 | SMILES
0.012 µM | CCc1cnn(-c2ccc(NC(=O)C3(c4ccc(C(F)(F)F)cc4F)CC3)cc2-c2nnn[nH]2)c1 [Example 376, N-[4-(4-Ethyl-1H-pyrazol-1-yl)-3-(1H-tetrazol-5-yl)phenyl]-1-[2-fluoro-4-(trifluoromethyl)phenyl]cyclopro-panecarboxamide]
0.00657 µM | CCc1cnn(-c2ccc(NC(=O)C3(c4ccc(OC(F)(F)F)cc4F)CC3)cc2-c2nnn[nH]2)c1 [Example 377, N-[4-(4-ethyl-1H-pyrazol-1-yl)-3-(1H-tetrazol-5-yl)phenyl]-1-[2-fluoro-4-(trifluoromethoxy)phenyl]cyclo-propanecarboxa-mide]
0.343 µM | CCc1cnn(-c2ccc(NC(=O)C3(c4cccc(Cl)c4)CC3)cc2-c2nnn[nH]2)c1 [Example 378, 1-(3-Chlorophenyl)-N-[4-(4-ethyl-1H-pyrazol-1-yl)-3-(1H-tetrazol-5-yl)phenyl]cyclopro-panecarboxa-mide]
0.257 µM | Cc1ccc(C2(C(=O)Nc3ccc(-n4ccc(C(C)(C)C)n4)c(-c4nnn[nH]4)c3)CC2)c(F)c1 [Example 379, N-[4-(3-tert-Butyl-1H-pyrazol-1-yl)-3-(1H-tetrazol-5-yl)phenyl]-1-(2-fluoro-4-methylphenyl)cy-clopropanecar-boxamide]
0.0367 µM | CC(C)(C)c1ccn(-c2ccc(NC(=O)C3(c4ccc(OC(F)(F)F)cc4F)CC3)cc2-c2nnn[nH]2)n1 [Example 381, N-[4-(3-tert-Butyl-1H-pyrazol-1-yl)-3-(1H-tetrazol-5-yl)phenyl]-1-[2-fluoro-4-(trifluoromethoxy)phenyl]cyclo-propanecarboxa-mide]
0.768 µM | CC(C)(C)c1ccn(-c2ccc(NC(=O)C3(c4cccc(Cl)c4)CC3)cc2-c2nnn[nH]2)n1 [Example 382, N-[4-(3-tert-Butyl-1H-pyrazol-1-yl)-3-(1H-tetrazol-5-yl)phenyl]-1-(3-chlorophenyl)cyclo-propanecarbox-amide]
0.142 µM | O=C(Nc1ccc(-c2cc3ccccc3s2)c(-c2nnn[nH]2)c1)C1(c2cccc(Cl)c2)CC1 [Example 383, N-[4-(1-benzothiophen-2-yl)-3-(1H-tetrazol-5-yl)phenyl]-1-(3-chlorophenyl)cyclo-propanecarbox-amide]
0.0149 µM | O=C(Nc1ccc(-c2cc3ccccc3s2)c(-c2nnn[nH]2)c1)C1(c2ccc(C(F)(F)F)cc2F)CC1 [Example 384, N-[4-(1-benzothiophen-2-yl)-3-(1H-tetrazol-5-yl)phenyl]-1-[2-fluoro-4-(trifluoromethyl)phenyl]cyclopro-panecarboxamide]
0.0547 µM | O=C(Nc1ccc(-c2cc3ccccc3s2)c(-c2nnn[nH]2)c1)C1(c2ccc(F)c(F)c2)CC1 [Example 385, N-[4-(1-benzothiophen-2-yl)-3-(1H-tetrazol-5-yl)phenyl]-1-(3,4-difluorophenyl)cyclo-propanecar-boxamide]
0.146 µM | O=C(Nc1ccc(-n2ccc(CC(F)(F)F)n2)c(-c2nnn[nH]2)c1)C1(c2cccc(Cl)c2)CC1 [Example 386, 1-(3-chlorophenyl)-N-{3-(1H-tetrazol-5-yl)-4-[3-(2,2,2-trifluoroethyl)-1H-pyrazol-1-yl]phenyl}cyclopro-panecarboxa-mide]
0.0334 µM | Cc1ccc(C2(C(=O)Nc3ccc(-n4ccc(CC(F)(F)F)n4)c(-c4nnn[nH]4)c3)CC2)c(F)c1 [Example 388, 1-(2-fluoro-4-methylphenyl)-N-{3-(1H-tetrazol-5-yl)-4-[3-(2,2,2-trifluoroethyl)-1H-pyrazol-1-yl]phenyl}cyclopro-panecarboxa-mide]
1.89 µM | O=C(Nc1ccc(-n2cc(Cl)cn2)c(-c2nnn[nH]2)c1)C1(c2cccc(Cl)c2)CC1 [Example 391, 1-(3-chlorophenyl)-N-[4-(4-chloro-1H-pyrazol-1-yl)-3-(1H-tetrazol-5-yl)phenyl]cyclopro-panecarboxa-mide]
0.187 µM | Cc1ccc(C2(C(=O)Nc3ccc(-n4cc(Cl)cn4)c(-c4nnn[nH]4)c3)CC2)c(F)c1 [Example 393, N-[4-(4-chloro-1H-pyrazol-1-yl)-3-(1H-tetrazol-5-yl)phenyl]-1-(2-fluoro-4-methylphenyl)cy-clopropanecar-boxamide]
0.0681 µM | O=C(Nc1ccc(-n2cc(Cl)cn2)c(-c2nnn[nH]2)c1)C1(c2ccc(C(F)(F)F)cc2F)CC1 [Example 394, N-[4-(4-chloro-1H-pyrazol-1-yl)-3-(1H-tetrazol-5-yl)phenyl]-1-[2-fluoro-4-(trifluoromethyl)phenyl]cyclopro-panecarboxamide]
0.0162 µM | O=C(Nc1ccc(-n2cc(Cl)cn2)c(-c2nnn[nH]2)c1)C1(c2ccc(OC(F)(F)F)cc2F)CC1 [Example 395, N-[4-(4-chloro-1H-pyrazol-1-yl)-3-(1H-tetrazol-5-yl)phenyl]-1-[2-fluoro-4-(trifluoromethoxy)phenyl]cyclo-propanecarboxa-mide]
0.0307 µM | CC(C)c1cnn(-c2ccc(NC(=O)C3(c4cccc(Cl)c4)CC3)cc2-c2nnn[nH]2)c1 [Example 396, 1-(3-chlorophenyl)-N-[4-(4-isopropyl-1H-pyrazol-1-yl)-3-(1H-tetrazol-5-yl)phenyl]cyclopro-panecarboxa-mide]
0.0385 µM | CC(C)c1cnn(-c2ccc(NC(=O)C3(c4ccc(F)c(F)c4)CC3)cc2-c2nnn[nH]2)c1 [Example 397, 1-(3,4-difluorophenyl)-N-[4-(4-isopropyl-1H-pyrazol-1-yl)-3-(1H-tetrazol-5-yl)phenyl]cyclopro-panecarboxa-mide]
0.0206 µM | Cc1ccc(C2(C(=O)Nc3ccc(-n4cc(C(C)C)cn4)c(-c4nnn[nH]4)c3)CC2)c(F)c1 [Example 398, 1-(2-fluoro-4-methylphenyl)-N-[4-(4-isopropyl-1H-pyrazol-1-yl)-3-(1H-tetrazol-5-yl)phenyl]cyclopro-panecarboxa-mide]
0.0254 µM | CC(C)(C)c1cn(-c2ccc(NC(=O)C3(c4cccc(Cl)c4)CC3)cc2-c2nnn[nH]2)cn1 [Example 400, N-[4-(4-tert-butyl-1H-imidazol-1-yl)-3-(1H-tetrazol-5-yl)phenyl]-1-(3-chlorophenyl)cy-clopropanecarbox-amide]
0.0345 µM | CC(C)(C)c1cn(-c2ccc(NC(=O)C3(c4ccc(F)c(F)c4)CC3)cc2-c2nnn[nH]2)cn1 [Example 401, N-[4-(4-tert-butyl-1H-imidazol-1-yl)-3-(1H-tetrazol-5-yl)phenyl]-1-(3,4-difluorophenyl)cy-clopropanecar-boxamide]
0.0253 µM | Cc1ccc(C2(C(=O)Nc3ccc(-n4cnc(C(C)(C)C)c4)c(-c4nnn[nH]4)c3)CC2)c(F)c1 [Example 402, N-[4-(4-tert-butyl-1H-imidazol-1-yl)-3-(1H-tetrazol-5-yl)phenyl]-1-(2-fluoro-4-methylphenyl)cy-clopropanecar-boxamide]
0.0206 µM | CC(C)(C)c1cn(-c2ccc(NC(=O)C3(c4ccc(C(F)(F)F)cc4F)CC3)cc2-c2nnn[nH]2)cn1 [Example 403, N-[4-(4-tert-butyl-1H-imidazol-1-yl)-3-(1H-tetrazol-5-yl)phenyl]-1-[2-fluoro-4-(trifluoromethyl)phenyl]cyclopro-panecarboxamide]
1.39 µM | CCC1CCN(c2ccc(NC(=O)C3(c4cccc(Cl)c4)CC3)cc2-c2nnn[nH]2)C1=O (stereo not drawn) [Example 405, 1-(3-chlorophenyl)-N-[4-(3-ethyl-2-oxopyrrolidin-1-yl)-3-(1H-tetrazol-5-yl)phenyl]cyclopro-panecarboxa-mide]
2.16 µM | CCC1CCN(c2ccc(NC(=O)C3(c4ccc(F)c(F)c4)CC3)cc2-c2nnn[nH]2)C1=O (stereo not drawn) [Example 406, 1-(3,4-difluorophenyl)-N-[4-(3-ethyl-2-oxopyrrolidin-1-yl)-3-(1H-tetrazol-5-yl)phenyl]cyclopro-panecarboxa-mide]
0.474 µM | CCC1CCN(c2ccc(NC(=O)C3(c4ccc(C)cc4F)CC3)cc2-c2nnn[nH]2)C1=O (stereo not drawn) [Example 407, N-[4-(3-ethyl-2-oxopyrrolidin-1-yl)-3-(1H-tetrazol-5-yl)phenyl]-1-(2-fluoro-4-methylphenyl)cy-clopropanecar-boxamide]
0.131 µM | CCC1CCN(c2ccc(NC(=O)C3(c4ccc(C(F)(F)F)cc4F)CC3)cc2-c2nnn[nH]2)C1=O (stereo not drawn) [Example 408, N-[4-(3-ethyl-2-oxopyrrolidin-1-yl)-3-(1H-tetrazol-5-yl)phenyl]-1-[2-fluoro-4-(trifluoromethyl)phenyl]cyclopro-panecarboxamide]
0.0547 µM | CCC1CCN(c2ccc(NC(=O)C3(c4ccc(OC(F)(F)F)cc4F)CC3)cc2-c2nnn[nH]2)C1=O (stereo not drawn) [Example 409, N-[4-(3-ethyl-2-oxopyrrolidin-1-yl)-3-(1H-tetrazol-5-yl)phenyl]-1-[2-fluoro-4-(trifluoromethoxy)phenyl]cyclo-propanecarboxa-mide]
0.00605 µM | CC(C)(C)c1cnn(-c2ccc(NC(=O)C3(c4ccc(C(F)(F)F)cc4F)CC3)cc2-c2nnn[nH]2)c1 [Example 410, 1-[2-fluoro-4-(trifluoromethyl)phenyl]-N-[4-(4-tert-butyl-1H-pyrazol-1-yl)-3-(1H-tetrazol-5-yl)phenyl]cyclopro-panecarboxa-mide]
0.00684 µM | CC(C)(C)c1cnn(-c2ccc(NC(=O)C3(c4ccc(OC(F)(F)F)cc4F)CC3)cc2-c2nnn[nH]2)c1 [Example 411, 1-[2-fluoro-4-(trifluoromethoxy)phenyl]-N-[4-(4-tert-butyl-1H-pyrazol-1-yl)-3-(1H-tetrazol-5-yl)phenyl]cyclopro-pranecarboxa-mide]
0.504 µM | O=C(Nc1ccc(-n2cnc(C(F)(F)F)n2)c(-c2nnn[nH]2)c1)C1(c2ccc(C(F)(F)F)cc2F)CC1 [Example 412, 1-[2-fluoro-4-(trifluoromethyl)phenyl]-N-{3-(1H-tetrazol-5-yl)-4-[3-(trifluoromethyl)-1H-1,2,4-triazol-1-yl]phenyl}cyclopro-panecarboxa-mide]
